The assay has as its system C57BL/6J mice (mild hyperglycemic). Kind of assay: In vivo glucose reduction, acute single dose 120-min time-course, i.p. route. Further details: species or system mouse; unit not given here. The note with it: male C57BL/6J mice. The protocol:
All the animal experiments were carried out according to the internationally valid guidelines following approval by the ‘Zydus Research Center animal ethical committee’.
Two days prior to the study, the animals were randomised and divided into 5 groups (n=6), based upon their fed glucose levels. On the day of experiment, food was withdrawn from all the cages, water was given ad-libitum and were kept for overnight fasting. Vehicle (normal saline)/test/standard compounds were administered intraperitoneally (i.p.) or orally, on a body weight basis.
Blood samples were centrifuged and the separated serum was immediately subjected for the glucose estimation. Serum for insulin estimation was stored at −70° C. until used for the insulin estimation. The glucose estimation was carried out with DPEC-GOD/POD method (Ranbaxy Fine Chemicals Limited, Diagnostic division, India), using Spectramax-190, in 96-microwell plate reader (Molecular devices Corporation, Sunnyvale, Calif.). […] The AUC and BCAUC obtained from graphs were analyzed for one way ANOVA, followed by Dunnett's post test, using Graph Pad prism software. Furthermore, the insulin estimation was carried out using rat/mouse insulin ELISA kit (Linco research, Missouri USA).

Non-standard residues stand in square brackets, D forms with d. Residues, ends and D or L forms follow the SMILES beside them. ξ: configuration not given here. *: point of attachment. ξBip(2'-Et-4'-OMe) = CCc1cc(OC)ccc1-c1ccc(CC(N)C(=O)O)cc1; ξαMePhe(2-F) = CC(N)(Cc1ccccc1F)C(=O)O; ξhhPhe = NC(CCCc1ccccc1)C(=O)O; Aib = CC(C)(N)C(=O)O; Moc = COC(=O)*

With `CCc1cc(OC)ccc1-c1ccc(CC(NC(=O)[C@H](CC(=O)O)NC(=O)[C@H](CO)NC(=O)[C@@H](NC(=O)C(C)(Cc2ccccc2F)NC(=O)[C@@H](NC(=O)CNC(=O)[C@H](CCC(N)=O)NC(=O)C(C)(C)NC(=O)[C@H](Cc2c[nH]cn2)NC(=O)OC)[C@@H](C)O)[C@@H](C)O)C(=O)NC(CCCc2ccccc2)C(N)=O)cc1` (stereo partly drawn) [Seq. ID. 94] (Moc-H[Aib]QGT[ξαMePhe(2-F)]TSD[ξBip(2'-Et-4'-OMe)][ξhhPhe]-NH2), the blood glucose levels (10 nM/kg i.p., 0 min) turned out to be 182 ± 4.1; the blood glucose levels (10 nM/kg i.p., 30 min) amounted to 112 ± 3.1; the blood glucose levels (10 nM/kg i.p., 60 min) is given as 113 ± 2.6; the blood glucose levels (10 nM/kg i.p., 120 min) was determined as 111 ± 1.8.

In the case of `CCc1cc(OC)ccc1-c1ccc(CC(CNC(CCCc2ccccc2F)C(N)=O)NC(=O)[C@H](CC(=O)O)NC(=O)[C@H](CO)NC(=O)[C@@H](NC(=O)C(C)(Cc2ccccc2F)NC(=O)[C@@H](NC(=O)CNC(=O)C(CCC#N)NC(=O)C(C)(C)NC(=O)[C@@H](N)Cc2c[nH]cn2)[C@H](C)O)[C@H](C)O)cc1` (single isomer, unassigned) [Seq. ID. 192], the blood glucose levels reads like this: (10 nM/kg i.p., 0 min) 180 ± 2.5; (10 nM/kg i.p., 30 min) 110 ± 2.6; (10 nM/kg i.p., 60 min) 111 ± 3.2; (10 nM/kg i.p., 120 min) 112 ± 2.3.

In the case of `CCc1cc(OC)ccc1-c1ccc(CC(CNC(CCCc2ccccc2F)C(N)=O)NC[C@H](CC(=O)O)NC(=O)[C@H](CO)NC(=O)[C@@H](NC(=O)C(C)(Cc2ccccc2F)NC(=O)[C@@H](NC(=O)CNC(=O)[C@H](CCC(N)=O)NC(=O)C(C)(C)NC(=O)[C@H](Cc2c[nH]cn2)NC(=O)OC)[C@@H](C)O)[C@@H](C)O)cc1` (single isomer, unassigned) [Seq. ID. 196], the blood glucose levels by setting is: (50 nM/kg i.p., 0 min) 181 ± 2.5; (50 nM/kg i.p., 30 min) 111 ± 3.4; (50 nM/kg i.p., 60 min) 113 ± 3.1; (50 nM/kg i.p., 120 min) 110 ± 1.8.

Take `CCc1cc(OC)ccc1-c1ccc(CC(CNC(CCCc2ccccc2)C(N)=O)NC[C@H](CC(=O)O)NC(=O)[C@H](CO)NC(=O)[C@@H](NC(=O)C(C)(Cc2ccccc2F)NC(=O)[C@@H](NC(=O)CNC(=O)[C@H](CCC(N)=O)NC(=O)C(C)(C)NC(=O)[C@H](Cc2c[nH]cn2)NC(=O)OC)[C@@H](C)O)[C@@H](C)O)cc1` (single isomer, unassigned) [Seq. ID. 194]: the blood glucose levels is reported as 183 ± 2.2 (10 nM/kg i.p., 0 min); 113 ± 2.8 (10 nM/kg i.p., 30 min); 113 ± 2.9 (10 nM/kg i.p., 60 min); 114 ± 2.0 (10 nM/kg i.p., 120 min).

In turn, `CCc1cc(OC)ccc1-c1ccc(CC(CNC(CCCc2ccccc2F)C(N)=O)NC[C@H](CC(=O)O)NC(=O)[C@H](CO)NC(=O)[C@@H](NC(=O)C(C)(Cc2ccccc2F)NC(=O)[C@@H](NC(=O)CNC(=O)[C@H](CCC(N)=O)NC(=O)C(C)(C)NC(=O)[C@H](Cc2c[nH]cn2)NC(C)=O)[C@@H](C)O)[C@@H](C)O)cc1` (single isomer, unassigned) [Seq. ID. 195] came in with a blood glucose levels (10 nM/kg i.p., 0 min) of 182 ± 2.3; a blood glucose levels (10 nM/kg i.p., 30 min) of 110 ± 2.3; a blood glucose levels (10 nM/kg i.p., 60 min) of 112 ± 3.0; a blood glucose levels (10 nM/kg i.p., 120 min) of 112 ± 1.9.

Consider `CCc1cc(OC)ccc1-c1ccc(CC(C(=O)N(C)C(CCCc2ccccc2F)C(N)=O)N(C)C(=O)[C@H](CC(=O)O)N(C)C(=O)[C@H](CO)NC(=O)[C@@H](NC(=O)C(C)(Cc2ccccc2F)NC(=O)[C@@H](NC(=O)CNC(=O)C(CCC#N)NC(=O)C(C)(C)NC(=O)[C@@H](N)Cc2c[nH]cn2)[C@H](C)O)[C@H](C)O)cc1` (single isomer, unassigned) [Seq. ID. 156], for which the blood glucose levels runs as follows: (30 nM/kg i.p., 0 min) 180 ± 3.2; (30 nM/kg i.p., 30 min) 119 ± 3.2; (30 nM/kg i.p., 60 min) 117 ± 3.1; (30 nM/kg i.p., 120 min) 118 ± 1.8.

The values are drawn from patent publication US8883963B2 (Cadila Healthcare Limited, priority 2007, dated 2014).
